SMILES strings stand for the structures.

This passage reports IC50 results from US20220289727A1, “ENZYME INHIBITORS” (KALVISTA PHARMACEUTICALS LIMITED, priority 2019, published 2022).

The target of the assay is T1, Human Factor XIIa (Homo sapiens, UniProt P00748).
T1 construct: Human Factor XIIa (Enzyme Research Laboratories) was incubated; purchased Enzyme Research Laboratories
T1 sequence (P00748 373-615 limits assumed): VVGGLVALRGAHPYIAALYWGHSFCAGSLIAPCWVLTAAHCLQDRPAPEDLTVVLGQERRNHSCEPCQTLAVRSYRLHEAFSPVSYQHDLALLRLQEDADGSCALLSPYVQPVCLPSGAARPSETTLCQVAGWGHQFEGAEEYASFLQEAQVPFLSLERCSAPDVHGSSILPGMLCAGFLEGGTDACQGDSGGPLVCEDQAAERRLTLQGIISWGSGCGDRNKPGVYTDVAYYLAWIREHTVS
T1 sequence (P00748 20-372 partner limits assumed): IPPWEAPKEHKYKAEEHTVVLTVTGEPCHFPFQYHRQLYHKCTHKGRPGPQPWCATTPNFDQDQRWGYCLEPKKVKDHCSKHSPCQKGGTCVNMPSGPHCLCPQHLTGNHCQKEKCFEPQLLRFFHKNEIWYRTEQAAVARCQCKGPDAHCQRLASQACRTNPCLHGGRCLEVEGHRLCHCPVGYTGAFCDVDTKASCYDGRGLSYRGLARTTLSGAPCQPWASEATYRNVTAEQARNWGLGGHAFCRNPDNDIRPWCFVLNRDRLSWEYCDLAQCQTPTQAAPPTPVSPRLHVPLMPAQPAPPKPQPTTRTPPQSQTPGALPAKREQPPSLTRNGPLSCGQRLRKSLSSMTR
Description: Determination of FXIIa inhibitory activity in vitro (fluorogenic substrate H-DPro-Phe-Arg-AFC). The assay is classed as biochemical. The following applies: 25° C., residual enzyme activity (initial rate).
For orientation: IC50 means the concentration needed to halve the response being measured. Higher therefore signals weaker potency. As for `CN(C)Cc1sc(C(=O)NCc2ccc3c(N)nccc3c2)cc1Cl` [Example 2.01], the concentration for half-maximal inhibition (IC50) fell in the range of 10 to 40 µM.

For the molecule `Nc1nccc2cc(CNC(=O)c3cc(Cl)c(CNCc4ccccc4)s3)ccc12` [Example 2.02], the 50% inhibitory concentration (IC50) fell in the range of 10 to 40 µM.

For the molecule `Nc1nccc2cc(CNC(=O)c3cc(Cl)c(CNc4ccccc4)s3)ccc12` [Example 2.03], the 50% inhibitory concentration (IC50) lay in the range of 10 to 40 µM.

`Nc1nccc2cc(CNC(=O)c3cc(Cl)c(CNCCN4CCCCC4)s3)ccc12` [Example 2.04] registered an IC50 of 3 to 10 µM.

In turn, `COc1ccc(CNCc2sc(C(=O)NCc3ccc4c(N)nccc4c3)cc2Cl)cc1` [Example 2.05] gave a 50% inhibitory concentration (IC50) of 10 to 40 µM.

In turn, `COc1cccc(CNCc2sc(C(=O)NCc3ccc4c(N)nccc4c3)cc2Cl)c1` [Example 2.06] returned an IC50 of 10 to 40 µM.

For `COc1ccccc1CNCc1sc(C(=O)NCc2ccc3c(N)nccc3c2)cc1Cl` [Example 2.07], the IC50 was 10 to 40 µM.

For `CN(C)c1ccccc1CNCc1sc(C(=O)NCc2ccc3c(N)nccc3c2)cc1Cl` [Example 2.08], the IC50 is 10 to 40 µM.

In the case of `COCCNCc1sc(C(=O)NCc2ccc3c(N)nccc3c2)cc1Cl` [Example 2.09], the concentration for half-maximal inhibition (IC50) was in the range of 10 to 40 µM.

Take `Nc1nccc2cc(CNC(=O)c3cc(Cl)c(CNCC4CCOCC4)s3)ccc12` [Example 2.10]: the IC50 lay within 10 to 40 µM.

In turn, `CS(=O)(=O)c1ccc(CNCc2sc(C(=O)NCc3ccc4c(N)nccc4c3)cc2Cl)cc1` [Example 2.11, N-[(1-Aminoisoquinolin-6-yl)methyl]-4-chloro-5-({[(4-methanesulfonylphenyl)methyl]amino}methyl)thiophene-2-carboxamide] had an IC50 of 3 to 10 µM.

`CS(=O)(=O)c1cccc(CNCc2sc(C(=O)NCc3ccc4c(N)nccc4c3)cc2Cl)c1` [Example 2.12] gave an IC50 of 3 to 10 µM.

`CS(=O)(=O)c1ccccc1CNCc1sc(C(=O)NCc2ccc3c(N)nccc3c2)cc1Cl` [Example 2.13] gave a half-maximal inhibitory concentration (IC50) of 10 to 40 µM.

`N#Cc1cccc(CNCc2sc(C(=O)NCc3ccc4c(N)nccc4c3)cc2Cl)c1` [Example 2.15] displayed an IC50 of 10 to 40 µM.

As for `CN(C)CCNCc1sc(C(=O)NCc2ccc3c(N)nccc3c2)cc1Cl` [Example 2.16], the IC50 fell in the range of 3 to 10 µM.

Molecule `Nc1nccc2cc(CNC(=O)c3cc(Cl)c(CNC4CCOCC4)s3)ccc12` [Example 2.17] showed an IC50 of 10 to 40 µM.

As for `Nc1nccc2cc(CNC(=O)c3cc(Cl)c(CNCCN4CCOCC4)s3)ccc12` [Example 2.18], the IC50 is 10 to 40 µM.

In the case of `CN1CCN(CCNCc2sc(C(=O)NCc3ccc4c(N)nccc4c3)cc2Cl)CC1` [Example 2.19], the IC50 was 3 to 10 µM.

Molecule `CN1CCC(CNCc2sc(C(=O)NCc3ccc4c(N)nccc4c3)cc2Cl)CC1` [Example 2.20] had a 50% inhibitory concentration (IC50) of 3 to 10 µM.

For `Nc1nccc2cc(CNC(=O)c3cc(Cl)c(CNCCOc4ccccc4)s3)ccc12` [Example 2.21], the half-inhibitory concentration (IC50) fell in the range of 10 to 40 µM.

The molecule `Nc1nccc2cc(CNC(=O)c3cc(Cl)c(CNCCCOc4ccccc4)s3)ccc12` [Example 2.22] had an IC50 of 10 to 40 µM.

Consider `Nc1nccc2cc(CNC(=O)c3cc(Cl)c(CNCCn4ccnc4)s3)ccc12` [Example 2.23], for which the IC50 lay in the range of 10 to 40 µM.

`CC(=O)N1CCN(CCNCc2sc(C(=O)NCc3ccc4c(N)nccc4c3)cc2Cl)CC1` [Example 2.24] displayed an IC50 of 10 to 40 µM.

Molecule `Nc1nccc2cc(CNC(=O)c3cc(Cl)c(CNCCN4CCS(=O)(=O)CC4)s3)ccc12` [Example 2.25] showed an IC50 of 10 to 40 µM.

Take `CC(C)CCNCc1sc(C(=O)NCc2ccc3c(N)nccc3c2)cc1Cl` [Example 2.26]: the half-maximal inhibitory concentration (IC50) was 10 to 40 µM.

Turning to `CC(=O)NCCNCc1sc(C(=O)NCc2ccc3c(N)nccc3c2)cc1Cl` [Example 2.27], the half-inhibitory concentration (IC50) is 10 to 40 µM.

`Nc1nccc2cc(CNC(=O)c3cc(Cl)c(CNCc4ccc5c(c4)OCO5)s3)ccc12` [Example 2.28] registered an IC50 of 10 to 40 µM.

Turning to `CN1CCCc2cc(CNCc3sc(C(=O)NCc4ccc5c(N)nccc5c4)cc3Cl)ccc21` [Example 2.29], the IC50 fell in the range of 10 to 40 µM.

Consider `Nc1nccc2cc(CNC(=O)c3cc(Cl)c(CNCc4ccccn4)s3)ccc12` [Example 2.30], for which the IC50 lay within 10 to 40 µM.

Regarding `Nc1nccc2cc(CNC(=O)c3cc(Cl)c(CNCc4ccncc4)s3)ccc12` [Example 2.31], the IC50 was in the range of 3 to 10 µM.

On to `Nc1nccc2cc(CNC(=O)c3cc(Cl)c(CNCc4cccnc4)s3)ccc12` [Example 2.32], for which the IC50 was in the range of 3 to 10 µM.

`CN(C)CCCNCc1sc(C(=O)NCc2ccc3c(N)nccc3c2)cc1Cl` [Example 2.33] had a concentration for half-maximal inhibition (IC50) of 3 to 10 µM.

`CC(C)N1CCN(CCCNCc2sc(C(=O)NCc3ccc4c(N)nccc4c3)cc2Cl)CC1` [Example 2.34] yielded an IC50 of 3 to 10 µM.

On to `CN(C)CCOc1ccc(CNCc2sc(C(=O)NCc3ccc4c(N)nccc4c3)cc2Cl)cc1` [Example 2.35], for which the IC50 is 3 to 10 µM.

The molecule `CN1CCN(CCCNCc2sc(C(=O)NCc3ccc4c(N)nccc4c3)cc2Cl)CC1` [Example 2.37] came in with a half-inhibitory concentration (IC50) of 3 to 10 µM.

The molecule `Nc1nccc2cc(CNC(=O)c3cc(Cl)c(CNCCN4CCCC4=O)s3)ccc12` [Example 2.38] gave a half-maximal inhibitory concentration (IC50) of 10 to 40 µM.

With `CN1CCN(c2ccccc2CNCc2sc(C(=O)NCc3ccc4c(N)nccc4c3)cc2Cl)CC1` [Example 2.39], the IC50 was 10 to 40 µM.

With `Nc1nccc2cc(CNC(=O)c3cc(Cl)c(CNCC4CCN(Cc5ccccc5)CC4)s3)ccc12` [Example 2.40], the IC50 fell in the range of 3 to 10 µM.

Molecule `Nc1nccc2cc(CNC(=O)c3cc(Cl)c(CNCc4ccc(N5CCCCC5=O)cc4)s3)ccc12` [Example 2.41] yielded an IC50 of 10 to 40 µM.

Consider `Nc1nccc2cc(CNC(=O)c3cc(Cl)c(CNCc4cccc(N5CCCC5=O)c4)s3)ccc12` [Example 2.42], for which the IC50 fell in the range of 10 to 40 µM.

With `Nc1nccc2cc(CNC(=O)c3cc(Cl)c(CNCC(=O)NC4CCCC4)s3)ccc12` [Example 2.43], the concentration for half-maximal inhibition (IC50) is 10 to 40 µM.

The molecule `CN(Cc1sc(C(=O)NCc2ccc3c(N)nccc3c2)cc1Cl)CC1CCN(c2ccncc2)CC1` [Example 2.44] yielded a half-maximal inhibitory concentration (IC50) of 3 to 10 µM.

`CN(C)CCCOc1cccc(CN(C)Cc2sc(C(=O)NCc3ccc4c(N)nccc4c3)cc2Cl)c1` [Example 2.45] had an IC50 of 3 to 10 µM.

`CN(Cc1sc(C(=O)NCc2ccc3c(N)nccc3c2)cc1Cl)C1CCOCC1` [Example 2.46] showed an IC50 of 10 to 40 µM.

`CN1CCC(N(C)Cc2sc(C(=O)NCc3ccc4c(N)nccc4c3)cc2Cl)CC1` [Example 2.47] had an IC50 of 10 to 40 µM.

On to `COc1ccc(NCc2sc(C(=O)NCc3ccc4c(N)nccc4c3)cc2Cl)cc1` [Example 2.48], for which the IC50 was 10 to 40 µM.

In the case of `CS(=O)(=O)c1ccc(NCc2sc(C(=O)NCc3ccc4c(N)nccc4c3)cc2Cl)cc1` [Example 2.49], the IC50 was in the range of 3 to 10 µM.

The molecule `N#Cc1ccc(CNCc2sc(C(=O)NCc3ccc4c(N)nccc4c3)cc2Cl)cc1` [Example 2.50] yielded an IC50 of 10 to 40 µM.

With `CC(=O)NCCCNCc1sc(C(=O)NCc2ccc3c(N)nccc3c2)cc1Cl` [Example 2.51], the IC50 lay within 10 to 40 µM.

`CN(C)CCCOc1cccc(CNCc2sc(C(=O)NCc3ccc4c(N)nccc4c3)cc2Cl)c1` [Example 2.52] displayed a half-maximal inhibitory concentration (IC50) of 3 to 10 µM.

Take `CN1C(C)(C)CC(NCc2sc(C(=O)NCc3ccc4c(N)nccc4c3)cc2Cl)CC1(C)C` [Example 2.53]: the IC50 lay within 3 to 10 µM.

On to `Nc1nccc2cc(CNC(=O)c3cc(Cl)c(CNCCn4cncn4)s3)ccc12` [Example 2.54], for which the 50% inhibitory concentration (IC50) fell in the range of 3 to 10 µM.
